Assay results reported in the Kinase Knowledgebase extract (Sharma et al. 2016).
pIC50: −log10 of the molar value.

Target: CDK2 (human) (UniProt P24941)
Test: Enzyme Assay

CC(C)(C)c1cnc(CSc2cnc(NC(=O)c3ccc(OCCCC(=O)NO)cc3)s2)o1
pIC50: ≥ 7.00

CC(C)(C)c1cnc(CSc2cnc(NC(=O)Cc3ccc(OCCCC(=O)NO)cc3)s2)o1
pIC50: ≥ 7.00

CC(C)(C)c1cnc(CSc2cnc(NC(=O)Oc3ccc(OCCCC(=O)NO)cc3)s2)o1
pIC50: ≥ 7.00

CC(C)(C)c1cnc(CSc2cnc(NCC3CCN(c4ncc(C(=O)NO)cn4)CC3)s2)o1
pIC50: ≥ 7.00

CC(C)(C)c1cnc(CSc2cnc(NC(=O)c3cccc(/C=C/C(=O)NO)c3)s2)o1
pIC50: ≥ 7.00

CC(C)(C)c1cnc(CSc2cnc(NC(=O)CCCNCCC(=O)NO)s2)o1
pIC50: ≥ 7.00

CC(C)(C)c1cnc(CSc2cnc(NC(=O)CCCNCCCCCCC(=O)NO)s2)o1
pIC50: ≥ 7.00

CC(C)(C)c1cnc(CSc2cnc(NC(=O)c3ccc(OCCCCCC(=O)NO)cc3)s2)o1
pIC50: ≥ 7.00

CC(C)(C)c1cnc(CSc2cnc(NC(=O)C3CCN(CCCCCCC(=O)NO)CC3)s2)o1
pIC50: ≥ 7.00

CC(C)(C)c1cnc(CSc2cnc(NC(=O)CCCCC(=O)NO)s2)o1
pIC50: ≥ 7.00

CC(C)(C)c1cnc(CSc2cnc(NC(=O)C3CCN(CCCCCC(=O)NO)CC3)s2)o1
pIC50: ≥ 7.00

CC(C)c1cnc(CSc2cnc(NC(=O)Cc3ccc(OCCCCCCC(=O)NO)cc3)s2)o1
pIC50: ≥ 7.00

CC(C)(C)c1cnc(CSc2cnc(NC(=O)CCCC(=O)NO)s2)o1
pIC50: ≥ 7.00

CC(C)(C)c1cnc(CSc2cnc(NC(=O)c3ccc(/C=C/C(=O)NO)cc3)s2)o1
pIC50: ≥ 7.00

CC(C)(C)c1cnc(CSc2cnc(NC(=O)c3ccc(OCCCCC(=O)NO)cc3)s2)o1
pIC50: ≥ 7.00

CC(Sc1cnc(NC(=O)Cc2ccc(OCCCC(=O)NO)cc2)s1)c1ncc(C(C)(C)C)o1 (configuration not stated)
pIC50: ≥ 7.00

CC(C)(C)c1cnc(CSc2cnc(NC(=O)c3ccc(OCCCCCCC(=O)NO)cc3)s2)o1
pIC50: ≥ 7.00

CC(C)(C)c1cnc(CSc2cnc(NC(=O)Cc3ccc(OCCC(=O)NO)cc3)s2)o1
pIC50: ≥ 7.00

CC(C)(C)c1cnc(CSc2cnc(NC(=O)C3CCN(CCCC(=O)NO)CC3)s2)o1
pIC50: ≥ 7.00

CC(C)(C)c1cnc(CSc2cnc(NC(=O)C(C)(C)c3ccc(OCCCC(=O)NO)cc3)s2)o1
pIC50: ≥ 7.00

CC(C)(C)c1cnc(CSc2cnc(NC(=O)Cc3ccc(OCCCCC(=O)NO)cc3)s2)o1
pIC50: ≥ 7.00

CC(C)(C)c1cnc(CSc2cnc(NC(=O)CCCCCCC(=O)NO)s2)o1
pIC50: ≥ 7.00

CNC(=O)CCCCCOc1ccc(CC(=O)Nc2ncc(SCc3ncc(C(C)(C)C)o3)s2)cc1
pIC50: ≥ 7.00

CC(C)(C)c1cnc(CSc2cnc(NC(=O)C3CCN(CCCCC(=O)NO)CC3)s2)o1
pIC50: ≥ 7.00

CC(C)(C)c1cnc(CSc2cnc(NC(=O)Nc3ccc(OCCCC(=O)NO)cc3)s2)o1
pIC50: ≥ 7.00

CC(C(=O)Nc1ncc(SCc2ncc(C(C)(C)C)o2)s1)c1ccc(OCCCC(=O)NO)cc1 (configuration not stated)
pIC50: ≥ 7.00

CC(C)(C)c1cnc(CSc2cnc(NC(=O)C3CCN(c4ncc(C(=O)NO)cn4)CC3)s2)o1
pIC50: ≥ 7.00
